Drawing on US12240844B2 (Voronoi, Inc., priority 2019, dated 2025), this text covers remaining binding for eight compounds.

Common to all, as to experiment: scanMAX Kinase panel (DiscoverX), % control
Common to all, as to type: binding
Settings in all cases: <35% = active

Test [1] addresses T1, DYRK1A (Homo sapiens, UniProt Q13627).
T1 construct: purchased DiscoverX
The procedure:
(§1) Specifically, for Examples 162, 160, 105, 217, 205, 96, 207, 184, 206, 221, 238, and 237 selected among the example compounds of the present invention, it was decided to measure enzyme (kinase) selectivity by DiscoverX, and the experiment was conducted using a panel for scanMAX™ Kinase analysis. At this time, the concentration of the drug treated with the enzyme was 1 uM in DMSO, the control percentage (% control) was determined in the same way as in Equation 1 below, and the results were shown in Table 6 below. [formula] Here, the positive control refers to a compound showing a control percentage of 0%, and the negative control is DMSO, indicating a control percentage of 100%. Also, in the enzyme selectivity of the present invention, if the control percentage for each enzyme was <35% (i.e., less than 35%), it was determined to have activity against the relevant enzyme.

Test [2] has as its target T2, GAK (Homo sapiens, UniProt O14976).
T2 construct: purchased DiscoverX
T2 sequence (O14976 1-1311): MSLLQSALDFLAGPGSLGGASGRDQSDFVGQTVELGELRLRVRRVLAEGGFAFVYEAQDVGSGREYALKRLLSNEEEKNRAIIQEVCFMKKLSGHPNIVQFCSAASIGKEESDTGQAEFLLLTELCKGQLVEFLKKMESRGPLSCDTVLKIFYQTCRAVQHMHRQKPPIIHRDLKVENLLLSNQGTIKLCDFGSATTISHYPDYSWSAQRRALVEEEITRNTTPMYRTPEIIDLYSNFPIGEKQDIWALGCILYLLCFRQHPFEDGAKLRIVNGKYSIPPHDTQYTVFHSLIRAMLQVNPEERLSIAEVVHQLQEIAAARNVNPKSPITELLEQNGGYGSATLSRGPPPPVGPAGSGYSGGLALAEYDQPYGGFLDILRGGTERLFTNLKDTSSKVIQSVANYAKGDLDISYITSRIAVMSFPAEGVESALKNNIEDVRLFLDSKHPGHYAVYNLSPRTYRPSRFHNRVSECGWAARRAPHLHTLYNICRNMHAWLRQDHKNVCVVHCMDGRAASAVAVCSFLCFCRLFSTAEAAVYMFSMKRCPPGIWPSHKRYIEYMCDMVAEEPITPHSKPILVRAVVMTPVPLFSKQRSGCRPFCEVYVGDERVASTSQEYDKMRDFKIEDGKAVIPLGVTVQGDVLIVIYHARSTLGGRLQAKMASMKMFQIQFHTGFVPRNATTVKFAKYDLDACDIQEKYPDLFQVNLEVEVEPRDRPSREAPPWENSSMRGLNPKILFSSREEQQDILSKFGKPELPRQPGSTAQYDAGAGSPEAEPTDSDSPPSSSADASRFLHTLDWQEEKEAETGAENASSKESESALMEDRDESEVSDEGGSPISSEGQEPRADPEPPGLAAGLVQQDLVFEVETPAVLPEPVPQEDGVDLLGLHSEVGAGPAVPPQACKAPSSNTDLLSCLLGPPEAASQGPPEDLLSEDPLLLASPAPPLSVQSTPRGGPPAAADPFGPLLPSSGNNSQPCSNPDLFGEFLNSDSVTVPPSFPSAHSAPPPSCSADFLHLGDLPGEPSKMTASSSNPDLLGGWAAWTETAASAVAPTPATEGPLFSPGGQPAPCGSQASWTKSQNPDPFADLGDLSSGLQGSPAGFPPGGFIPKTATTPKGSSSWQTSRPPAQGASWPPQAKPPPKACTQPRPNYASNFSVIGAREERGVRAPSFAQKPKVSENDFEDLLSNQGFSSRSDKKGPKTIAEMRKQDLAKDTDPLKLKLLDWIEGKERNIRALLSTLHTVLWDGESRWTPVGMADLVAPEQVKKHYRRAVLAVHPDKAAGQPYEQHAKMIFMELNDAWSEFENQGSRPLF
As to the method: as §1

Test [3] concerns the target T3, CLK1 (Homo sapiens, UniProt P49759).
T3 construct: purchased DiscoverX
As to the method:
as §1

Test [4] concerns the target T4, CLK4 (Homo sapiens, UniProt Q9HAZ1).
T4 construct: purchased DiscoverX
As to the method: as §1

Test [5] has as its target T5, ALK (C1156Y) (Homo sapiens, UniProt Q9UM73, C1156Y).
T5 construct: purchased DiscoverX
The procedure: as §1

Test [6] has as its target LRRK2 (Homo sapiens, UniProt Q5S007). On the set-up: purchased DiscoverX. The procedure: as §1
Test [7] deals with LRRK2 (G2019S) (Homo sapiens, UniProt Q5S007, G2019S). Also on record: purchased DiscoverX. The procedure: as §1
Sequence of LRRK2 (G2019S) (Q5S007 whole entry G2019S): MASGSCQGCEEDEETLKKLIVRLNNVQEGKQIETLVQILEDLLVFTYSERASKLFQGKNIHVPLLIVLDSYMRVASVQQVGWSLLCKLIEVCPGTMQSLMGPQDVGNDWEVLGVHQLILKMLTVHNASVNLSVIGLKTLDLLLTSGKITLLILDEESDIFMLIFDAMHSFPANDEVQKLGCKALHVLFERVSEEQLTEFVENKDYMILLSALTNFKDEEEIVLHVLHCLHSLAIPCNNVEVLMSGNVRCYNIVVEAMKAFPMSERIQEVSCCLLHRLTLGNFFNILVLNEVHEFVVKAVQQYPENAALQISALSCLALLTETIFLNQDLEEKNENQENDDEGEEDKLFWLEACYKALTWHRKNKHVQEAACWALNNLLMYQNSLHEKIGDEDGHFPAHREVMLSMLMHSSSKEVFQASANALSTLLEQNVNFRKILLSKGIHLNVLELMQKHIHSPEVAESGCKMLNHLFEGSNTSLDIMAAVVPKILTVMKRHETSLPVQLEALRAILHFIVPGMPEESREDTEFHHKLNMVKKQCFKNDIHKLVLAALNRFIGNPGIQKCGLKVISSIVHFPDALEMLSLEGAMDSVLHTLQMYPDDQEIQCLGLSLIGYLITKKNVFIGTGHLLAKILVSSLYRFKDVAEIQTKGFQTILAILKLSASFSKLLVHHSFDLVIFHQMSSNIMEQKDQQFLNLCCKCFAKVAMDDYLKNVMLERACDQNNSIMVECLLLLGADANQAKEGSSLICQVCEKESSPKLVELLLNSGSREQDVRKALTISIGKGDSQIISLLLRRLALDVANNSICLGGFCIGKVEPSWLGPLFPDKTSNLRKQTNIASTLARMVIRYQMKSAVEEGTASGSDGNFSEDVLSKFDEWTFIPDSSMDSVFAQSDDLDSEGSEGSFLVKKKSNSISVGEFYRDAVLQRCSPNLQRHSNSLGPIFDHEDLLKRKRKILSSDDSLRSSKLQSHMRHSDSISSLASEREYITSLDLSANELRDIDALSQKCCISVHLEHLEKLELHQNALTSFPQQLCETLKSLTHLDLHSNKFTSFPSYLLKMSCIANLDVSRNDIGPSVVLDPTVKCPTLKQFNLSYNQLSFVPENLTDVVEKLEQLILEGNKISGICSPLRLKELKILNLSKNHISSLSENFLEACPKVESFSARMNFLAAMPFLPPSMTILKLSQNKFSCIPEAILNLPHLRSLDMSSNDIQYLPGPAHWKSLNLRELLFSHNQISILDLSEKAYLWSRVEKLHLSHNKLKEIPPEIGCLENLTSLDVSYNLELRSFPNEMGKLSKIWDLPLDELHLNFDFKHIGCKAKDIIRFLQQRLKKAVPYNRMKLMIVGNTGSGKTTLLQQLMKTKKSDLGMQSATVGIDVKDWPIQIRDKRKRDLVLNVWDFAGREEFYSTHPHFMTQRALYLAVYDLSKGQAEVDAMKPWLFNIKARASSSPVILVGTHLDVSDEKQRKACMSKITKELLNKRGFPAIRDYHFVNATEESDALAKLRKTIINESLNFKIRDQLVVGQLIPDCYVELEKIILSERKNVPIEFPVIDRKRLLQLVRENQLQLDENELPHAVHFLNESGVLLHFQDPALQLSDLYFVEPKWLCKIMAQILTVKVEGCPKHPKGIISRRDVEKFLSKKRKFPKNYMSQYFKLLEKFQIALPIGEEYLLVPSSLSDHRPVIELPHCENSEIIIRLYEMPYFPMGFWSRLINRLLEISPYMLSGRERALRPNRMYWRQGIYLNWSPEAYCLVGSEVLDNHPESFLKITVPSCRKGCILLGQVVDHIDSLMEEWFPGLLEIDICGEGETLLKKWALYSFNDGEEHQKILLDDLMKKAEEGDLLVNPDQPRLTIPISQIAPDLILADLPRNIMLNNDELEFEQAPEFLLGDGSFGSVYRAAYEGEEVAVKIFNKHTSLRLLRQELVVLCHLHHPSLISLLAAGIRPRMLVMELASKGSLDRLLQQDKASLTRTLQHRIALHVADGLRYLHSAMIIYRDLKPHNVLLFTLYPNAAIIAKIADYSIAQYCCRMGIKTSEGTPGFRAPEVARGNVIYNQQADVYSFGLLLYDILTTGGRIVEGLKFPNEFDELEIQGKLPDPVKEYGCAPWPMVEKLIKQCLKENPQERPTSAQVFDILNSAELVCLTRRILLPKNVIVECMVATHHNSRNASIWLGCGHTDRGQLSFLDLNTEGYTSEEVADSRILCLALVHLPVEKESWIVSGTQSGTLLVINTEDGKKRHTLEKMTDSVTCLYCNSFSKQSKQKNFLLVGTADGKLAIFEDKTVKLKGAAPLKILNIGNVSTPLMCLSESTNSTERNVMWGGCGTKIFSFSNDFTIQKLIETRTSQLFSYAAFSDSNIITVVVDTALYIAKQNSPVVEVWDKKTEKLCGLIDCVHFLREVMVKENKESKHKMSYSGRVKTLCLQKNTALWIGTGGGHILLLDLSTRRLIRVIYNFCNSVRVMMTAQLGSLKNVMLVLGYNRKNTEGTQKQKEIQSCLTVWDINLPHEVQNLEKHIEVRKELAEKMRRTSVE
Test [8] has as its target T6, TTK (Homo sapiens, UniProt P33981).
T6 sequence (P33981 1-857): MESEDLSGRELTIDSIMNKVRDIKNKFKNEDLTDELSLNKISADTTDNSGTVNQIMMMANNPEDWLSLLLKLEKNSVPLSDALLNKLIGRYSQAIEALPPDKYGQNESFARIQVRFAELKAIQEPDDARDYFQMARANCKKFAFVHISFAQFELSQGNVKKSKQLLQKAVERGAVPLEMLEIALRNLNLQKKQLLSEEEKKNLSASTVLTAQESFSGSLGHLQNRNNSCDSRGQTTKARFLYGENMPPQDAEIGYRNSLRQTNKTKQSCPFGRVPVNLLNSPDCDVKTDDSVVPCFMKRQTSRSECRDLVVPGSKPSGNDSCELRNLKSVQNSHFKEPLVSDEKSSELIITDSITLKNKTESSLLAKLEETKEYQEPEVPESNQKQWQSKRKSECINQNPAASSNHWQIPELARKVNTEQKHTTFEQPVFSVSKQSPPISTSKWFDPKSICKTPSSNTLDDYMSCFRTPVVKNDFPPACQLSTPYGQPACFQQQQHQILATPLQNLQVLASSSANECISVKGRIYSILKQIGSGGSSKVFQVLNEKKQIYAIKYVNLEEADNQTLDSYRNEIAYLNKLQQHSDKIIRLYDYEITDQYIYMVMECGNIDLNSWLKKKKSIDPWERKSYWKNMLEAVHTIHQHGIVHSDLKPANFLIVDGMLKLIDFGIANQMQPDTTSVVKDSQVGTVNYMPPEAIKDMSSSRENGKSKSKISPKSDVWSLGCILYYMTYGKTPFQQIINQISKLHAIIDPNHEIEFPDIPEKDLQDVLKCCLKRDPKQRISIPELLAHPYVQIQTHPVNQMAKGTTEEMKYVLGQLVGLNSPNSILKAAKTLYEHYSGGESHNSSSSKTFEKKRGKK
On the set-up: purchased DiscoverX. The procedure: as §1

T4 sequence (Q9HAZ1 whole entry): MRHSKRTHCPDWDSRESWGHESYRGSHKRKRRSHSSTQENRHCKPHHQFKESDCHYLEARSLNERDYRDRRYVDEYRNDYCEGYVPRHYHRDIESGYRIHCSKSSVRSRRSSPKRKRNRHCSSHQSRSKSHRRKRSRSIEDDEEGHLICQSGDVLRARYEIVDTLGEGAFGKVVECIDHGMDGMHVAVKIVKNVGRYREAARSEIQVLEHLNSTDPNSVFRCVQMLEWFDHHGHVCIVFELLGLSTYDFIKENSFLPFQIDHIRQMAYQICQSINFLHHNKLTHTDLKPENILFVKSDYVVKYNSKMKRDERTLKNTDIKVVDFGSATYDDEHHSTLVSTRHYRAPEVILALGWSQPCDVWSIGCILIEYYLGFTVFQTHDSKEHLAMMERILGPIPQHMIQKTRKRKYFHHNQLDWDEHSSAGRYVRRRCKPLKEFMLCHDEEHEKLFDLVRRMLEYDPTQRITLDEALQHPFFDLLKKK
Sequence of LRRK2 (Q5S007 whole entry): as the sequence (Q5S007 whole entry G2019S) above, with S2019G counted along it
T3 sequence (P49759 whole entry): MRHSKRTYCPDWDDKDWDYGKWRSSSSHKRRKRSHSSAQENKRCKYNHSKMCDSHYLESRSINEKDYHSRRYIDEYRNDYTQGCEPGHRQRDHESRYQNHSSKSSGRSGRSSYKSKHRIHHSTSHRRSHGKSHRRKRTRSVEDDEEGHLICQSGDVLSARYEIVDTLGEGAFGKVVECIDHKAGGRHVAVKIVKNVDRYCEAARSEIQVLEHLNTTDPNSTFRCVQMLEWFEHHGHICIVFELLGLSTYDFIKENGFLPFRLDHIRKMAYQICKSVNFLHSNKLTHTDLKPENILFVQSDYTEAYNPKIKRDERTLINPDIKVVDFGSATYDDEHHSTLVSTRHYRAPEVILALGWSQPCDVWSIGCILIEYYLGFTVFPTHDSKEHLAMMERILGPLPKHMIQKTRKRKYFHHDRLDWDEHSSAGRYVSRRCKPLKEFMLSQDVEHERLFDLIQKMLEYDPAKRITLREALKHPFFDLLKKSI
T5 sequence (Q9UM73 19-1620 C1156Y): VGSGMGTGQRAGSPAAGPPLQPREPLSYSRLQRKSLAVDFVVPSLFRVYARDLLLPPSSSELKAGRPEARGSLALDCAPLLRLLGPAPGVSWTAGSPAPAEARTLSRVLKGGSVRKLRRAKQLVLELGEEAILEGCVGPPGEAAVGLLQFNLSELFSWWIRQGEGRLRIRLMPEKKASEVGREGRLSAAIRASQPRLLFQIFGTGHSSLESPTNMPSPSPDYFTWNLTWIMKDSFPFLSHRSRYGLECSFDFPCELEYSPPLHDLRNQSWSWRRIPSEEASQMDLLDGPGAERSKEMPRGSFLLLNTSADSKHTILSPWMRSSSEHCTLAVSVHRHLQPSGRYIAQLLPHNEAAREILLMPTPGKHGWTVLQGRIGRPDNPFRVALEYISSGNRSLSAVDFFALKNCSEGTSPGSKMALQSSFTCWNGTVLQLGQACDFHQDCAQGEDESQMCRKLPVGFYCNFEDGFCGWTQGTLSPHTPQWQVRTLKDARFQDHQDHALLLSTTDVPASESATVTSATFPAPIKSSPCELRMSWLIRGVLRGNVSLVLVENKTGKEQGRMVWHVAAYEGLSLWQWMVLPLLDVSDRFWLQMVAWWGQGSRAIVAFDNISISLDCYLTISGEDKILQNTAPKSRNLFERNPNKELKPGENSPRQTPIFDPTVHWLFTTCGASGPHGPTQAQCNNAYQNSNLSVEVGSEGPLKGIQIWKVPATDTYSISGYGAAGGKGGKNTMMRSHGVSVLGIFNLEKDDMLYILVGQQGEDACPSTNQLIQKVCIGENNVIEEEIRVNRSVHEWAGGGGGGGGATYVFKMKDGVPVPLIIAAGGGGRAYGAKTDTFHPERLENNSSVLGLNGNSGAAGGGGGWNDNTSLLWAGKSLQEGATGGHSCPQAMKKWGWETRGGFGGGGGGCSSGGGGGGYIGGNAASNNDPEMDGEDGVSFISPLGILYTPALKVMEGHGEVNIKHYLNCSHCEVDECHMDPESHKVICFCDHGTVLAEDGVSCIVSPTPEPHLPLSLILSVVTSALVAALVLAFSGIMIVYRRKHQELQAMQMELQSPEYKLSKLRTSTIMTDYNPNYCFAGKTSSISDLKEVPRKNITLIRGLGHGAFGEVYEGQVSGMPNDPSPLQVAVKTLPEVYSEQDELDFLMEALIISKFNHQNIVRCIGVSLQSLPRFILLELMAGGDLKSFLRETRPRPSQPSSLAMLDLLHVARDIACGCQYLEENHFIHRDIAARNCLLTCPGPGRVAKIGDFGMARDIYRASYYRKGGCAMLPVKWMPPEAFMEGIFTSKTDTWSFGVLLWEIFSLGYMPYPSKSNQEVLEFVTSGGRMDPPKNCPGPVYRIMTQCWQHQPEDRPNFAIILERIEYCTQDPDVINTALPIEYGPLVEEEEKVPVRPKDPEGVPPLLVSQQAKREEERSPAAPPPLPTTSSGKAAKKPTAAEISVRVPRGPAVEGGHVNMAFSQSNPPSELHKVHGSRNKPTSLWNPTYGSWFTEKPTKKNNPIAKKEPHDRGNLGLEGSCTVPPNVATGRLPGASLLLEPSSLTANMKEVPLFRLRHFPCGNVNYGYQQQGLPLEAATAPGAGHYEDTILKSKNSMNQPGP

As for `CCNc1cc(Nc2ccc(P3(=O)CCN(C4CC4)CC3)cc2OC)nc2[nH]cc(C(F)(F)F)c12` [Example 206, 1-cyclopropyl-4-(4-((4-(ethylamino)-3-(trifluoromethyl)-1H-pyrrolo[2,3-b]pyridin-6-yl)amino)-3-methoxyphenyl)-1,4-azaphosphinane 4-oxide], the remaining binding at 1 µM in test [1] stood at 2%; in test [2], 29%; in test [3], 8.5%; in test [4] it was 1.2%; in test [5] it was 5.3%; in test [6], 23%. In addition, the remaining binding at 1 µM in test [7] turned out to be 28%; in test [8] it was 0.65%.
Consider `CNc1cc(Nc2ccc(S(=O)(=O)N3CCC(N4CCOCC4)CC3)cc2OC)nc2[nH]cc(C(F)(F)F)c12` [Example 184, N^6-(2-methoxy-4-((4-morpholinopiperidin-1-yl)sulfonyl)phenyl)-N^4-methyl-3-(trifluoromethyl)-1H-pyrrolo[2,3-b]pyridine-4,6-diamine], for which the remaining binding at 1 µM in test [1] stood at 0.1%; in test [2] it was 27%; in test [3], 3.4%; in test [4], 0.45%; in test [5] it was 7%; in test [6], 3.8%. The remaining binding at 1 µM in test [7] came to 3.2%; in test [8], 0.35%.
As to `CNc1cc(Nc2ccc(P3(=O)CCN(C4CC4)CC3)cc2OC)nc2[nH]cc(C(F)(F)F)c12` [Example 205, 1-cyclopropyl-4-(3-methoxy-4-((4-(methylamino)-3-(trifluoromethyl)-1H-pyrrolo[2,3-b]pyridin-6-yl)amino)phenyl)-1,4-azaphosphinane 4-oxide], the remaining binding at 1 µM in test [1] came to 0.25%; in test [2], 12%; in test [3], 18%; in test [4], 0.25%; in test [5], 1.3%; in test [6], 18%. Further, the results for the remaining binding at 1 µM in test [7] and in test [8] were 17% and 5.5%, respectively.
Regarding `CNc1cc(Nc2ccc(C(=O)N3CC[C@H](N4CCOCC4)C3)c3c2OCC3)nc2[nH]cc(C(F)(F)F)c12` [Example 217, (S)-(7-((4-(methylamino)-3-(trifluoromethyl)-1H-pyrrolo[2,3-b]pyridin-6-yl)amino)-2,3-dihydrobenzofuran-4-yl)(3-morpholinopyrrolidin-1-yl)methanone], the remaining binding at 1 µM in test [1] turned out to be 0%; in test [2] it was 9.9%; in test [3], 2.4%; in test [4], 8.2%; in test [5], 3.9%; in test [6], 1%. The figures for the remaining binding at 1 µM in test [7] and in test [8] were 1% and 3%, respectively.
For `CCNc1cc(Nc2ccc(S(=O)(=O)N3CCC(N4CCOCC4)CC3)c3c2OCCO3)nc2[nH]cc(C(F)(F)F)c12` [Example 96, N^4-ethyl-N^6-(8-((4-morpholonopiperidin-1-yl)sulfonyl)-2,3-dihydrobenzo [b] [1,4]dioxin-5-yl)-3-(trifluoromethyl)-1H-pyrrolo[2,3-b]pyridine-4,6-diamine], the remaining binding at 1 µM in test [1] amounted to 1.3%; in test [2], 14%; in test [3], 9.7%; in test [4], 0.3%; in test [5], 10%; in test [6] it was 4.5%. For the same compound, the figures for the remaining binding at 1 µM in test [7] and in test [8] were 1.9% and 2.7%, respectively.
Consider `CCCNc1cc(Nc2ccc(C(=O)N3CCC(N4CCOCC4)CC3)c3c2OCCO3)nc2[nH]cc(C(F)(F)F)c12` [Example 162, (4-morpholinopiperidin-1-yl)(8-((4-(propylamino)-3-(trifluoromethyl)-1H-pyrrolo[2,3-b]pyridin-6-yl)amino)-2,3-dihydrobenzo[b] [1,4]dioxin-5-yl)methanone], for which the remaining binding at 1 µM was found to be 0.35% in test [1]; 6.3% in test [2]; 13% in test [3]; 0.55% in test [4]; 0.9% in test [5]; 2.8% in test [6]. Moreover, the values for the remaining binding at 1 µM in test [7] and in test [8] were 0.35% and 3.4%, respectively.
With `COCCNc1cc(Nc2ccc(P3(=O)CCN(C4CC4)CC3)cc2OC)nc2[nH]cc(C(F)(F)F)c12` [Example 207, 1-cyclopropyl-4-(3-methoxy-4-((4-((2-methoxyethyl)amino)-3-(trifluoromethyl)-1H-pyrrolo[2,3-b]pyridin-6-yl)amino)phenyl)-1,4-azaphosphinane 4-oxide], the remaining binding at 1 µM in test [1] was 0.4%; in test [2], 38%; in test [3], 5.6%; in test [4], 0.55%; in test [5], 1.8%; in test [6], 20%. For the same compound, the remaining binding at 1 µM in test [7] was found to be 16%; in test [8], 4.8%.
Take `O=C(c1ccc(Nc2cc(C3CC3)c3c(C(F)(F)F)c[nH]c3n2)c2c1OCCO2)N1CCC(N2CCOCC2)CC1` [Example 221, (8-((4-cyclopropyl-3-(trifluoromethyl)-1H-pyrrolo[2,3-b]pyridin-6-yl)amino)-2,3-dihydrobenzo [b] [1,4]dioxin-5-yl)(4-morpholinopiperidin-1-yl)methanone]: the remaining binding at 1 µM in test [1] was 5.1%; in test [2], 12%; in test [3] it was 7.5%; in test [4], 0.25%; in test [5] it was 12%; in test [6], 14%. Also, the remaining binding at 1 µM amounted to 5.5% in test [7] and 4.5% in test [8].
